In patent US10544415B2, “Methods for producing enteroendocrine cells that make and secrete insulin” (The Trustees Of Columbia University In The City Of New York, priority 2010, dated 2020):

How the values were obtained:
KATP channel = KATP channel (Mus musculus, UniProt B2RUS7); settings: NKO gut segments, 1 hr; 10 nM glibenclamide or 0.5 mM diazoxide
Procedure: Adult intestine was stained in medium containing 0.12 mM Dithizone (DTZ) (10) and selected 5-inches-long DTZ+ fragments from NKO mice or anatomically matched control mice. The intestines were cut open and incubated in glucose-free DMEM supplemented with 10% FBS and 20 mM glucose for 30 min. At the end of the incubation, insulin and C peptide 2 content was measured in the medium by ELISA (Millipore). Collagenase-purified pancreatic islets from 14-week-old WT mice served as controls (5).
To determine whether Ggut Ins^+ cells are functionally competent to secrete insulin, we performed ex vivo assays of insulin secretion in response to glucose and KATP channel modulators, using DTZ staining to select gut segments enriched in Ins^+ cells from NKO mice and anatomically matched segments from control mice.
Adult intestine were strained in medium containing 0.12 mM Dithizone (DTZ) (Tuttle et al Nat Med, 2001) and selected 5-inches-long DTZ+ fragments from NKO mice or anatomically matched fragments from control WT mice. […] At the end of the incubation, we measured insulin and C-peptide 2 content in the medium by ELISA (Millipore). Collagenase-purified pancreatic islets from 14-week-old WT mice served as controls (Kitamura et al., MCB 2009). Experiments were carried out using adult intestines (n=4).

[1] = Insulin bioassay: acid-ethanol tissue extracts injected into newborn mice, blood glucose; type: in vivo, mouse
Procedure: Insulin bioassay. Acid-ethanol extracts were prepared from neonatal (P3) gut, liver, and pancreas (35). Tissue extract or recombinant human insulin (Humulin R, Eli Lilly) (10 U/ml in acid-ethanol) were mixed with either insulin neutralizing antibody (Thermo Scientific) or isotype-matched mouse IgG1 (Ebiosciences) for subcutaneous injections in 50 microliters volume. Glucose was measured immediately prior to and 5 minutes after injections.
To examine whether intestinal insulin secreted by Gut Ins+ cells is bioactive, acid-ethanol extracts from NKO gut were prepared, extracts were also prepared from gut, pancreas and liver of WT mice, and injected into newborn mice. Extracts from newborn NKO intestine lowered blood glucose by about 20%, similar to pancreatic extracts from age-matched control mice or recombinant human insulin (FIG. 3C). In contrast, extracts from control intestines or liver had no effect. The ability of NKO gut extracts (reflecting the presence of Gut Ins+ cells) to lower blood glucose was preempted by the addition of an insulin-neutralizing antibody, as was pancreatic extracts from control mice and recombinant insulin.

KATP channel, sequence (B2RUS7 1-1588): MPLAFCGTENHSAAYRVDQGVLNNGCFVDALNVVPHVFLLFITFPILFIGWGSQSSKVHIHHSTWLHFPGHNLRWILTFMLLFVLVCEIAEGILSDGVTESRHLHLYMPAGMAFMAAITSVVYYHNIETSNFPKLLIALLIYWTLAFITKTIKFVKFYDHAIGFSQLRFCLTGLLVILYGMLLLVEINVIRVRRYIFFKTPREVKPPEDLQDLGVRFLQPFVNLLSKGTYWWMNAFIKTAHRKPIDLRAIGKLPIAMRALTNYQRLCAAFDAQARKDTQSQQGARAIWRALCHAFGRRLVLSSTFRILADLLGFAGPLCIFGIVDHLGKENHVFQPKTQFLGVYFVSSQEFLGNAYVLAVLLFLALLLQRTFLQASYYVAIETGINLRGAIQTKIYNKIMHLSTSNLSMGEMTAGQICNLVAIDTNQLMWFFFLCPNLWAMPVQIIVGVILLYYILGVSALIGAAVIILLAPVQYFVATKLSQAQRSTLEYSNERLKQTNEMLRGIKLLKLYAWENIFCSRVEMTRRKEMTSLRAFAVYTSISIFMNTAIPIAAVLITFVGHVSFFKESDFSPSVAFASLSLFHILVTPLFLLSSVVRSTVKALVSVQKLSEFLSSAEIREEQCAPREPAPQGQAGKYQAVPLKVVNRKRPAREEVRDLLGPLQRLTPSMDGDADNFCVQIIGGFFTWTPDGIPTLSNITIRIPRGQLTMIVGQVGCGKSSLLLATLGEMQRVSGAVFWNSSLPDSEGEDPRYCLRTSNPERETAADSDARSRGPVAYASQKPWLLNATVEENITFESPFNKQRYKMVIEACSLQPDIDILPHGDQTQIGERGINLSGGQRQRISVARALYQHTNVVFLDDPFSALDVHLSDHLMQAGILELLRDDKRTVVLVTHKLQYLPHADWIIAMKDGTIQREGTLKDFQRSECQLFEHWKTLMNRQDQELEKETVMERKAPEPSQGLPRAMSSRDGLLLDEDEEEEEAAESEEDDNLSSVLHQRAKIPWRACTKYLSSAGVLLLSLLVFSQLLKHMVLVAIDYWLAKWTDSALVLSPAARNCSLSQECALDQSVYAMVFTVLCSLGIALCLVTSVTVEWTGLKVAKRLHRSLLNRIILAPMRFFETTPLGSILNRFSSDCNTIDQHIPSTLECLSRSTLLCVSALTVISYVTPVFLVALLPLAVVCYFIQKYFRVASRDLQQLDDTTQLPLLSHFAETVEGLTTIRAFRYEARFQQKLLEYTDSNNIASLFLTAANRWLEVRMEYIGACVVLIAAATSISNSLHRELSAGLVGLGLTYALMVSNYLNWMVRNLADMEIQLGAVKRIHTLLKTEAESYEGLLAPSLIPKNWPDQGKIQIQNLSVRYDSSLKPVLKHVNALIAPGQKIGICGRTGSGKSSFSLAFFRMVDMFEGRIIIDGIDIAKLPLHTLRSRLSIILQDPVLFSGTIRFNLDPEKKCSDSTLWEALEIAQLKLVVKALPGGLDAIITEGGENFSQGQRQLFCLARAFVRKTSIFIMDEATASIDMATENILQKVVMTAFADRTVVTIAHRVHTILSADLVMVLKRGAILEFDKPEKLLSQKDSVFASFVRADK
KATP channel, sequence (Q61743 whole entry partner): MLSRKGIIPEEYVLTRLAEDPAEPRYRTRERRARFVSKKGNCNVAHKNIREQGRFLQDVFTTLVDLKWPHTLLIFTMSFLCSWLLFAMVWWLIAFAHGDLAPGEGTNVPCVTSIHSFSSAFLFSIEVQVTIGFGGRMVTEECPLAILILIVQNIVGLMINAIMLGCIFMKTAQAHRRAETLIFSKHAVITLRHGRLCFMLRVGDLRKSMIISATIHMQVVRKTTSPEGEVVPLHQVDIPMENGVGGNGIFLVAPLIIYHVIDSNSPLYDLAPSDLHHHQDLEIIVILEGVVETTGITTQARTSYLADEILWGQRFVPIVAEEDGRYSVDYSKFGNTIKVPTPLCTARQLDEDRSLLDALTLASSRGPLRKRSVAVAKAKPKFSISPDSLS

| Compound | effect on glucose-induced insulin release from NKO gut (KATP channel) | lowering of blood glucose (in words) ([1]; injected into newborn mice, compared with NKO intestine extract) | ability to lower blood glucose after addition of insulin-neutralizing antibody ([1]; sample mixed with insulin-neutralizing antibody) |
| --- | --- | --- | --- |
| CC1=NS(=O)(=O)c2cc(Cl)ccc2N1 [diazoxide] | blunted |  |  |
| recombinant human insulin: recombinant human insulin (Humulin R, Eli Lilly), 10 U/ml in acid-ethanol |  | similar | preempted |
